Calls of active or inactive are those of the source. How the calls were made is not given here.
Tested on: Leishmania donovani growth inhibition
Assay: Leishmania donovani growth inhibition (AID 1159560);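 further: parasites exposed to compound for 72 h before the viability read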

Structure (SMILES)	IC50
O=C(Cc1ccccc1)Nc1ccccc1C(=O)Nc1nccs1	> 50 µM (inactive)
Cn1nc([N+](=O)[O-])nc1Oc1ccc(C(=O)c2ccccc2)cc1	> 50 µM (inactive)
O=C(C1CCCCC1)N1CCN(c2nnc(-c3ccccc3)c3ccccc23)CC1	> 50 µM (inactive)
CC(CCc1ccccc1)NC(=O)CN(Cc1ccccn1)Cc1ccccn1 (configuration not stated)	7.9 µM
CC(CNS(=O)(=O)c1ccc(OC(F)F)cc1)c1ccc(NC(=O)c2ccncc2)cc1 (configuration not stated)	> 50 µM (inactive)
COc1cnc2ccc(=O)n(CCN3CCC(NC(=O)Cc4ccc(Cl)c(Cl)c4)CC3)c2c1	5 µM
Nc1nc(-c2ccccc2)cc(-c2nc3ncccc3[nH]2)n1	4 µM
CCCC(=O)N(Cc1ccccn1)c1nc2ccccc2s1	7.9 µM
c1ccc(-c2nc(NCc3ccco3)c3ccccc3n2)nc1	3.2 µM
Cc1nnnn1-c1cccc(C(=O)N2CCC[C@@]3(C)c4ncncc4CCC23)c1 (some centres not stated)	0.4 µM
COc1ccc(C2CC(c3ccccc3Cl)=NN2C(=O)CNC(=O)C2CCC2)cc1 (configuration not stated)	> 50 µM (inactive)
CC(C)Oc1ccc(C(=O)Nc2ccc(N3CCOCC3)c(Cl)c2)cc1	> 50 µM (inactive)
O=C(Nc1nc(-c2ccccn2)cs1)c1ccc(S(=O)(=O)N2CCCCC2)cc1	0.63 µM
Cc1ccc(NC(=O)C(C)n2nc([N+](=O)[O-])c(Br)c2C)cc1Cl (configuration not stated)	> 50 µM (inactive)
COc1ccc(Nc2nc(-c3ccccn3)cc(N3CCCC(O)C3)n2)cc1 (configuration not stated)	2.5 µM
O=C(NCC1CCCCC1)c1cnns1	13 µM
NS(=O)(=O)c1ccc(Nc2nccc(-c3cnn4ncccc34)n2)cc1	0.79 µM
CCN(CC)S(=O)(=O)c1ccc(C(=O)Nc2cc(C)nn2-c2nc(C)c(C)c(=O)[nH]2)cc1	0.5 µM
c1ccc(CCNCc2cncc3nc(-c4cnccn4)n(C4CCCCC4)c23)cc1	> 50 µM (inactive)
CC(C)Nc1nccc(-c2c(-c3ccc(F)cc3)ncn2C2CCOCC2)n1	25 µM
Nc1nonc1-c1nc2cncc(C(=O)N3CC[C@H](N)C3)c2n1CC1CC1	> 50 µM (inactive)
Cn1ccnc1CN1CCc2[nH]cnc2C1c1ccccc1OCc1ccccc1 (configuration not stated)	> 50 µM (inactive)
Clc1ccc(C(CC2CCCCO2)Cn2cncn2)c(Cl)c1 (configuration not stated)	25 µM
CC(=O)Nc1ccc(-c2noc(CC3CCCN(Cc4cccc(F)c4C)C3)n2)cc1 (configuration not stated)	40 µM
CC(C)(C)CC(=O)NCCc1csc(-c2ccc(F)cc2)n1	> 50 µM (inactive)
CC(C)c1nn(-c2nc(N)nc(-c3ccccn3)n2)c(N)c1C1CCCCC1	7.9 µM

Structure (SMILES)	IC50
CN(C)c1ncc(-c2cncn2CCOc2ccc(Cl)cc2)cn1	> 50 µM (inactive)
CCc1c(C)nc(-n2nc(C)cc2NC(=O)COc2ccccc2F)[nH]c1=O	0.13 µM
C=CCOCC1Cn2nc([N+](=O)[O-])nc2O1 (configuration not stated)	> 50 µM (inactive)
Fc1ccc(Nc2nc(-c3ccccn3)cs2)cc1	20 µM
O=C(Nc1ncc([N+](=O)[O-])s1)C1CC1	40 µM
Cc1[nH]nc(-c2nc3ccccc3[nH]2)c1C(=O)NC1CCCNC1 (configuration not stated)	10 µM
CCOc1ccc2nc(NC(=O)c3ccc([N+](=O)[O-])s3)sc2c1	2.5 µM
Cc1ccc(NC(=O)c2ccnc(N3CCCC3)c2)cc1-c1cc(C(N)=O)ccc1C	25 µM
O=C(CSc1ccc(F)cc1)N[C@@H](Cc1cnc[nH]1)C(=O)NCCc1ccccc1	> 50 µM (inactive)
Cc1nc2c(-c3ncn[nH]3)cc(NC(=O)Cc3ccccc3)cn2c1C	0.79 µM
Cc1ccc2sc(NC(=O)Cn3cnc([N+](=O)[O-])n3)nc2c1	> 50 µM (inactive)
O=C(CSc1nnc(-c2ccc3c(c2)OCO3)o1)N(Cc1ccco1)CC(F)(F)F	16 µM
COc1cccc(-c2cc(C(F)(F)F)nc(-n3ccc([N+](=O)[O-])n3)n2)c1	> 50 µM (inactive)
CCOC(=O)c1noc(N)c1-c1ccccc1	> 50 µM (inactive)
COc1ccc([N+](=O)[O-])cc1NC(=O)Nc1cccc(Cl)c1	> 50 µM (inactive)
NC(=O)c1cc(NC(=O)c2ccccc2COc2ccccc2)ccc1Cl	7.9 µM
Cc1ccc2c(c1)SC(C(=O)Nc1n[nH]c(-c3ccccn3)n1)C2 (configuration not stated)	6.3 µM
COc1ccc2nccc(NC(=O)C3(OC)CCN(CC(O)c4ccc5c(c4)OCCO5)CC3)c2n1 (configuration not stated)	10 µM
N#Cc1cccc(Cc2cc(Nc3cc(C4CC4)[nH]n3)nc(N3CC[C@H]3C(N)=O)n2)c1	0.63 µM
COc1ccccc1CNc1cc(C2CC2)nc(-c2nccn2C)n1	1 µM
Clc1cc(Br)ccc1OCCCCn1ccnc1	0.13 µM
CN(CC1CCCO1)S(=O)(=O)c1ccc(C(=O)Nc2nc(-c3ccccn3)cs2)cc1 (configuration not stated)	1.3 µM
c1ccc2[nH]c(-c3ccc(N4CCCC4)nc3)nc2c1	5 µM
O=C(Nc1ccccc1)Nc1nc(-c2ccccn2)cs1	1.6 µM
COc1ccc(-c2cnc(NC(=O)c3cc(-c4ccccn4)n[nH]3)n2C)cc1	4 µM
O=C1CSC(c2cccnc2)N1c1ccc(Cl)cc1Cl (configuration not stated)	5 µM

— PubChem BioAssay AID1159560 (GlaxoSmithKline (GSK), 2015)
